{
  "source": "paper PMC4604124",
  "about": "“In Vitro Characterization of the Pharmacological Properties of the Anti-Cancer Chelator, Bp4eT, and Its Phase I Metabolites” (PLoS ONE, 2015)",
  "key": {"[1]": {"test": "Viability (viabilita) used to normalise caspase activity;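 also: compound tested at 100 nM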", "format": "cell-based, human", "details": "human, MCF-7 cells, kontrola = 100", "source_text": "Supplement pone.0139929.s002.zip/caspases activity.xlsx, sheet \"results_viability\""}, "[2]": {"test_system": "H9c2 cardiomyoblasts", "test": "MTT cytotoxicity assay, H9c2 cells", "format": "cell-based, rat", "details": "for IC50: MTT, read-out: IC50", "how_it_was_run": "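72 h/37°C exposure, 0.1% DMSO. Plating: MCF-7 5,000; HCT116, A549 2,000; H9c2 10,000 cells/well, H9c2 switched to serum/pyruvate-free DMEM 24 h. MTT OD 570 nm, 690 nm background subtracted. Viability as % untreated control; IC50 derived.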"}, "[3]": {"test_system": "HL-60 human promyelocytic leukemia cells", "test": "MTT cytotoxicity assay, HL-60 cells", "format": "cell-based", "details": "for IC50: MTT", "protocol": "For cytotoxicity experiments, cancer cells were seeded at a density of 5,000 (MCF-7), 10,000 (HL-60) or 2,000 cells/well (HCT116 and A549) in 96-well plates (TPP) for 24 h/37°C prior to the addition of examined agents. The non-cancerous cells, 3T3 and H9c2 cells, were cultured for 24 h/37°C in 96-well plates at a density of 10,000 cells/well, the medium was then changed to serum- and pyruvate-free DMEM (Sigma-Aldrich) and incubated with the cells for another 24 h/37°C. The cytotoxic effects of Bp4eT and its metabolites were studied at different concentrations after a 72 h/37°C incubation. In order to aid the dissolution of the lipophilic ligands, 0.1% dimethyl sulfoxide (v/v) (DMSO; Sigma-Aldrich) was present in the culture medium of all groups. At this concentration, DMSO had no effect on cellular proliferation or viability.\nThe viability of cells were determined using an MTT assay (Sigma-Aldrich) according to previously established methods. The optical density of soluble MTT was measured at λ = 570 nm, subtracting the λ = 690 nm background using a Tecan Infinite 200M plate reader (Tecan Group, Männedorf, Switzerland). The viability or proliferation of experimental groups was expressed as a percentage of the untreated controls (100%).\nSigmaStat for Windows 3.5 (Systat Software, San Jose, CA, USA) statistical software package was utilized to analyze results. The data are expressed as the mean ± SD of a given number of experiments. Statistical significance was determined using a one-way ANOVA with a Bonferroni post-hoc test or Student’s t-test. The results were considered to be statistically significant when p < 0.05. The IC50 values were calculated using CalcuSyn 2.0 software (Biosoft, Cambridge, UK). Cell cycle analysis was evaluated using MultiCycle AV Software (Phoenix Flow Systems, San Diego, CA, USA)."}},
  "note": "Values joined by “and” are separate entries in the source; they are usually repeats but may differ in a detail not shown here. Identical values can stand only once. Like-named read-outs stand apart in the source and are kept apart here.",
  "data": [
    {"smiles": "CCNC(=S)NN=C(c1ccccc1)c1ccccn1", "note": "[Bp4eT, 2-benzoylpyridine 4-ethyl-3-thiosemicarbazone]", "values": [
      {"measurement": "viability at 3 h, 100 nM", "setting": "[1]; 3 hodiny", "result": 96.3, "unit": "%"},
      {"measurement": "viability at 24 h, 100 nM", "setting": "[1]; 24 hodin", "result": 52.8, "unit": "%"},
      {"measurement": "viability at 72 h, 100 nM", "setting": "[1]; 72 hodin", "result": 27.1, "unit": "%"},
      {"measurement": "MTT, relative to control (0 = 100)", "setting": "[2]; H9c2, 10 000 b/j, 3 nM, průměr (mean)", "result": 99.21},
      {"measurement": "MTT, relative to control (0 = 100)", "setting": "[2]; H9c2, 10 000 b/j, 3 nM, single experiment (date)", "result": "102.894 and 97.5415 and 98.1925 and 99.1728 and 98.234"},
      {"measurement": "MTT, relative to control (0 = 100)", "setting": "[2]; H9c2, 10 000 b/j, 10 nM, průměr (mean)", "result": 97.95},
      {"measurement": "MTT, relative to control (0 = 100)", "setting": "[2]; H9c2, 10 000 b/j, 10 nM, single experiment (date)", "result": "93.4128 and 99.1411 and 98.6466 and 98.7917 and 99.7545"},
      {"measurement": "MTT, relative to control (0 = 100)", "setting": "[2]; H9c2, 10 000 b/j, 30 nM, průměr (mean)", "result": 93.46},
      {"measurement": "MTT, relative to control (0 = 100)", "setting": "[2]; H9c2, 10 000 b/j, 30 nM, single experiment (date)", "result": "89.8997 and 94.1191 and 90.5168 and 97.6473 and 95.1275"},
      {"measurement": "MTT, relative to control (0 = 100)", "setting": "[2]; H9c2, 10 000 b/j, 100 nM, průměr (mean)", "result": 83.34},
      {"measurement": "MTT, relative to control (0 = 100)", "setting": "[2]; H9c2, 10 000 b/j, 100 nM, single experiment (date)", "result": "88.1519 and 73.0922 and 83.4003 and 88.2 and 83.8639"},
      {"measurement": "MTT, relative to control (0 = 100)", "setting": "[2]; H9c2, 10 000 b/j, 300 nM, průměr (mean)", "result": 64.46},
      {"measurement": "MTT, relative to control (0 = 100)", "setting": "[2]; H9c2, 10 000 b/j, 300 nM, single experiment (date)", "result": "78.5818 and 47.7898 and 54.7281 and 65.2971 and 75.8815"},
      {"measurement": "MTT, relative to control (0 = 100)", "setting": "[2]; H9c2, 10 000 b/j, 1000 nM, průměr (mean)", "result": 35.85},
      {"measurement": "MTT, relative to control (0 = 100)", "setting": "[2]; H9c2, 10 000 b/j, 1000 nM, single experiment (date)", "result": "36.8685 and 33.593 and 34.7888 and 38.1329"},
      {"measurement": "MTT, relative to control (0 = 100)", "setting": "[2]; H9c2, 10 000 b/j, 3000 nM, průměr (mean)", "result": 31.03},
      {"measurement": "MTT, relative to control (0 = 100)", "setting": "[2]; H9c2, 10 000 b/j, 3000 nM, single experiment (date)", "result": "33.7493 and 30.5962 and 27.1956 and 32.5967"},
      {"measurement": "IC50", "setting": "[2]; H9c2, 10 000 b/j, single experiment (date)", "result": "360 nM and 438 nM and 587 nM"},
      {"measurement": "IC50", "setting": "[2]; Rattus norvegicus, H9c2, 72 h, H9c2, 72 h/37°C, mean ± SD, n ≥ 4", "result": "524 ± 157", "unit": "nM"},
      {"measurement": "IC50", "setting": "[2]; Rattus norvegicus, H9c2, H9c2, 10 000 b/j, průměr (mean)", "result": 524, "unit": "nM"},
      {"measurement": "IC50", "setting": "[2]; Rattus norvegicus, H9c2, H9c2, 10 000 b/j, single experiment (date)", "result": 713, "unit": "nM"},
      {"measurement": "Therapeutic index, IC50 non-cancerous cells / IC50 neoplastic cells", "setting": "[3]; 3T3/HL-60", "result": 436.3},
      {"measurement": "Therapeutic index, IC50 non-cancerous cells / IC50 neoplastic cells", "setting": "[3]; H9c2/HL-60", "result": 174.7},
      {"measurement": "MTT, relative to control (0 = 100)", "setting": "[3]; HL-60, 10 000 b/j, 0.1 nM, průměr (mean)", "result": 98.01},
      {"measurement": "MTT, relative to control (0 = 100)", "setting": "[3]; HL-60, 10 000 b/j, 0.1 nM, single experiment (date)", "result": "96.1425 and 103.96 and 95.2755 and 95.4167 and 99.2528"},
      {"measurement": "MTT, relative to control (0 = 100)", "setting": "[3]; HL-60, 10 000 b/j, 0.3 nM, průměr (mean)", "result": 96.66},
      {"measurement": "MTT, relative to control (0 = 100)", "setting": "[3]; HL-60, 10 000 b/j, 0.3 nM, single experiment (date)", "result": "99.4278 and 92.0645 and 96.8892 and 98.2749"},
      {"measurement": "MTT, relative to control (0 = 100)", "setting": "[3]; HL-60, 10 000 b/j, 1 nM, průměr (mean)", "result": 97.15},
      {"measurement": "MTT, relative to control (0 = 100)", "setting": "[3]; HL-60, 10 000 b/j, 1 nM, single experiment (date)", "result": "95.2755 and 96.4389 and 98.8804 and 97.9877"},
      {"measurement": "MTT, relative to control (0 = 100)", "setting": "[3]; HL-60, 10 000 b/j, 3 nM, průměr (mean)", "result": 62.98},
      {"measurement": "MTT, relative to control (0 = 100)", "setting": "[3]; HL-60, 10 000 b/j, 3 nM, single experiment (date)", "result": "50.186 and 52.1752 and 67.6874 and 81.8744"},
      {"measurement": "MTT, relative to control (0 = 100)", "setting": "[3]; HL-60, 10 000 b/j, 10 nM, průměr (mean)", "result": 3.98},
      {"measurement": "MTT, relative to control (0 = 100)", "setting": "[3]; HL-60, 10 000 b/j, 30 nM, průměr (mean)", "result": 1.50},
      {"measurement": "MTT, relative to control (0 = 100)", "setting": "[3]; HL-60, 10 000 b/j, 100 nM, průměr (mean)", "result": 1.69},
      {"measurement": "IC50", "setting": "[3]; HL-60, 10 000 b/j, single experiment (date), read-out: IC50 měřené", "result": "2.84 nM and 3.65 nM and 4.08 nM"},
      {"measurement": "IC50", "setting": "[3]; Homo sapiens, HL-60, 72 h, HL-60, 72 h/37°C, mean ± SD, n ≥ 4, read-out: IC50", "result": "3 ± 1", "unit": "nM"}
    ]}
  ]
}
